Results reported in patent US8513027B2, “Method of identifying an inhibitor of the prostanoid EP4 receptor” (Asterand UK Acquisition Limited, priority 1998, dated 2013).

What was measured:
[1] = system: human cerebral artery rings; assay: tone of isolated human cerebral artery rings exposed to prostanoid receptor agonists; type: cell-based; details: for effect on smaller diameter cerebral artery rings contracted with phenylephrine, TP receptors blocked: phenylephrine 1 μM, GR32191 1 μM in bathing solution
Experimental: Sections of cerebral artery were removed from different regions of preparations of human cerebral vasculature containing an intact circle of Willis. Intact rings of this cerebral artery, 2-3 mm in length, were set up under isometric conditions in 10 ml organ baths under an initial tension of 1 g. All tissues were maintained at 37° C. and gassed constantly with 95% O2/5% CO2. Following a 90 min equilibration period all tissues were challenged with phenylephrine (1 μM), to determine tissue viability. Once a stable contraction had been obtained, tissues were exposed to a range of prostanoid receptor agonists, in the absence or presence of receptor antagonists, to determine the functional role of prostanoid receptors in maintaining arterial tone.

EP4 receptors = molecular target: T1, EP4 receptors (Sus scrofa, UniProt I3LLK4); details: blockade of EP4 receptors; cited from earlier work
T1 construct: providing a natural source of the receptors, such as piglet saphenous vein; from tissue; host or cells: piglet saphenous vein rings

EP1 = details: cited from earlier work
EP2 = EP2 (Homo sapiens, UniProt P43116); details: cited from earlier work
EP3 = molecular target: T2, EP3 (Homo sapiens, UniProt P43115); details: cited from earlier work
T2 sequence (P43115 1-390): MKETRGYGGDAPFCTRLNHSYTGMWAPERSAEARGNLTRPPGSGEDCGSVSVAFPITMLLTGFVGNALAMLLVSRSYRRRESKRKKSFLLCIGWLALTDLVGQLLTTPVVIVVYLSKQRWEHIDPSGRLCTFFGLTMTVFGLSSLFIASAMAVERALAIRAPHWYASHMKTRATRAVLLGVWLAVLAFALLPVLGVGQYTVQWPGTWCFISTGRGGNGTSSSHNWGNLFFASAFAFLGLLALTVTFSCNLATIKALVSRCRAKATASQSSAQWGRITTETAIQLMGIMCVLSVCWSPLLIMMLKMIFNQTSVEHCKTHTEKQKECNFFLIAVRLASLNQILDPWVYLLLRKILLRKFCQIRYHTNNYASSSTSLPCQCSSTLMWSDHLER

EP4 receptor = molecular target: T3, EP4 receptor (Homo sapiens, UniProt P35408); assay: antagonism of PGE2-mediated relaxation of phenylephrine pre-contracted middle cerebral artery rings; type: cell-based; details: 10 mM AH23848, 45 mins; P=0.004
T3 construct: Intact rings of this cerebral artery, 2-3 mm in length, were set up under isometric conditions; from tissue; host or cells: human middle cerebral artery rings (one donor)
Experimental: Sections of cerebral artery were removed from different regions of preparations of human cerebral vasculature containing an intact circle of Willis. […] Once a stable contraction had been obtained, tissues were exposed to a range of prostanoid receptor agonists, in the absence or presence of receptor antagonists, to determine the functional role of prostanoid receptors in maintaining arterial tone.
To test the effect of the EP4 receptor antagonist AH23848, cerebral rings were preincubated for 45 mins with 10 mM AH23848.

pulmonary artery = assay: effect on pre-contracted pulmonary artery rings; type: cell-based, human; details: tone induced with U-46619 10-100 nM; n=3 donors
Experimental: (§1) Rings (2-4 mm internal diameter) were prepared from sections of pulmonary or coronary artery (n=3 each). They were mounted in organ baths under isometric conditions, in gassed Krebs solution (containing indomethacin) at 37° C., and 1-1.5 g initial tone.

coronary artery = assay: effect on pre-contracted coronary artery rings; type: cell-based, human; details: n=3 donors; for relaxation of coronary artery: tone induced with phenylephrine 1-10 μM or endothelin-1
Experimental: as §1

T1 sequence (I3LLK4 1-489): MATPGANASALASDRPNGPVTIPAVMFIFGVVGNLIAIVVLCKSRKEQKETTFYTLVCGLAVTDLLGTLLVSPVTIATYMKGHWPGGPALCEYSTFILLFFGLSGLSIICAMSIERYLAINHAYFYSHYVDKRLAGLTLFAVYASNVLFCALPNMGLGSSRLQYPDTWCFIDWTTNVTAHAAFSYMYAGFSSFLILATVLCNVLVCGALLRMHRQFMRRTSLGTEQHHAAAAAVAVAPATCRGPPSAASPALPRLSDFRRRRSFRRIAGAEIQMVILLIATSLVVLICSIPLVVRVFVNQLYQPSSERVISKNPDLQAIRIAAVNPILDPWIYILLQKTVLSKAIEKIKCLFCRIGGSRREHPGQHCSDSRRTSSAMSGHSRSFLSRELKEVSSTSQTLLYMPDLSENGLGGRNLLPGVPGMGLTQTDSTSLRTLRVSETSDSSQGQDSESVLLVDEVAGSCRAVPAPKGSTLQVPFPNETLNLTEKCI
Chain of EP2 (P43116 whole entry): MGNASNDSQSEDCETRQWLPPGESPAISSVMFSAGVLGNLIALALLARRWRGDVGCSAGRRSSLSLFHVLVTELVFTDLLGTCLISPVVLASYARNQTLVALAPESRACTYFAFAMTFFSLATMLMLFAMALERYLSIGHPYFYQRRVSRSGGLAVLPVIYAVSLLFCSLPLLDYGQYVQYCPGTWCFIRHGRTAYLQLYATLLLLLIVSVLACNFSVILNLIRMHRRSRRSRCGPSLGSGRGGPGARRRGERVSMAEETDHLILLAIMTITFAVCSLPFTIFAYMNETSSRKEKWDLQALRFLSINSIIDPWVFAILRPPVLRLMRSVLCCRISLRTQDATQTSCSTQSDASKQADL
T3 sequence (P35408 whole entry): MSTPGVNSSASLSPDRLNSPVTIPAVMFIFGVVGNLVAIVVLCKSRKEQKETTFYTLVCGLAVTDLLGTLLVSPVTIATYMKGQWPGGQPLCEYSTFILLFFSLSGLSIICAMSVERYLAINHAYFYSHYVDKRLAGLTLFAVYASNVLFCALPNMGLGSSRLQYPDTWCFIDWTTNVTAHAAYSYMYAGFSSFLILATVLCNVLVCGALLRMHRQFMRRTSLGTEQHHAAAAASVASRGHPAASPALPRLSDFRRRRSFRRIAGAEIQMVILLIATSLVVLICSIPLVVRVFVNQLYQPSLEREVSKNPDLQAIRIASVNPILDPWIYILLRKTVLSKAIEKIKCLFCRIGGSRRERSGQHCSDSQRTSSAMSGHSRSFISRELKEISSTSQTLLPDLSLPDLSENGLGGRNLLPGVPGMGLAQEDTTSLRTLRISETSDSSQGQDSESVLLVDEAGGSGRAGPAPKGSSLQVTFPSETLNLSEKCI

## CCCCCC(O)c1ccc([C@@H]2CCC(=O)[C@H]2CCCCCCC(=O)O)cc1 (relative stereo) [AH13205, trans-2-(4-[1-hydroxyhexyl]phenyl)-5-oxocyclopentaneheptanoate]
[1]
  effect on smaller diameter cerebral artery rings contracted with phenylephrine, TP receptors blocked: neither compound caused relaxation

## O=C(O)CCC/C=C\C[C@@H]1C(N2CCOCC2)C(=O)C[C@@H]1OCc1ccc(-c2ccccc2)cc1 (stereo partly shown) [AH22921]
EP4 receptors
  pA2 against PGE2-induced relaxation of piglet saphenous vein: 5.3
EP1
  effect on EP1 receptor subtype: no effect
EP2
  effect on EP2 receptor subtype: no effect
EP3
  effect on EP3 receptor subtype: no effect

## O=C(O)CC/C=C\CC[C@@H]1C(N2CCOCC2)C(=O)C[C@@H]1OCc1ccc(-c2ccccc2)cc1 (stereo partly shown) [AH23848]
EP4 receptor
  shift of PGE2-mediated relaxation curve: significant rightward shift
EP4 receptors
  pA2 against PGE2-induced relaxation of piglet saphenous vein: 5.4
EP1
  effect on EP1 receptor subtype: no effect
EP2
  effect on EP2 receptor subtype: no effect
EP3
  effect on EP3 receptor subtype: no effect

## CCCC1([C@H](O)C/C=C/[C@H]2[C@H](O)CC(=O)[C@@H]2CCCCCCC(=O)OC)CCC1 [Butaprost]
[1]
  effect on smaller diameter cerebral artery rings contracted with phenylephrine, TP receptors blocked: neither compound caused relaxation

## CC#CCC(C)[C@H](O)/C=C/[C@@H]1[C@H]2C/C(=C/CCCC(=O)O)C[C@H]2C[C@H]1O (stereo partly shown) [Iloprost]
[1]
  effect on smaller diameter cerebral artery rings contracted with phenylephrine, TP receptors blocked: induced relaxation

## CCCCC[C@H](O)/C=C/[C@H]1C(=O)C[C@H](O)[C@@H]1C/C=C\CCCC(=O)O [PGD2]
[1]
  effect on smaller diameter cerebral artery rings contracted with phenylephrine, TP receptors blocked: without effect

## CCCCC[C@H](O)/C=C/[C@H]1[C@H](O)CC(=O)[C@@H]1C/C=C\CCCC(=O)O [PGE2, prostaglandin E2]
[1]; U46619 100 nM or 5-HT 300 nM and 1 μM, FIG. 2
  relaxation of cerebral artery rings pre-contracted with U46619 or 5-HT: maximal or near maximal relaxation
[1]; human cerebral arteries
  effect of removal of the endothelium on the relaxant response: did not affect
[1]; internal diameter <1 mm, pre-contracted with phenylephrine
  effect on smaller pre-contracted cerebral vessels: potent concentration-related relaxation
[1]; internal diameter >1 mm
  effect on larger cerebral vessels: concentration-related contraction
[1]; vessel pre-contracted with phenylephrine, FIG. 1
  concentration at which maximum relaxation occurs: below 10^−6 M
Pulmonary artery
  relaxation of pulmonary artery: did not cause relaxation
Coronary artery; pre-contracted preparations
  contraction of coronary artery: small contraction
Coronary artery
  relaxation of coronary artery: did not cause relaxation

## CCCCC[C@H](O)/C=C/[C@@H]1[C@@H](C/C=C\CCCC(=O)O)[C@@H](O)C[C@H]1O [PGF2α]
[1]
  effect on smaller diameter cerebral artery rings contracted with phenylephrine, TP receptors blocked: without effect

## CCC#CC[C@H](C)[C@H](O)C#C[C@@H]1[C@H]2C/C(=C/COCC(=O)O)C[C@H]2C[C@H]1O [cicaprost]
[1]
  effect on smaller diameter cerebral artery rings contracted with phenylephrine, TP receptors blocked: induced relaxation
Pulmonary artery
  relaxation of pulmonary artery: induced a relaxation
Coronary artery
  relaxation of coronary artery: induced a relaxation
